Patent US20260355150A1 (Sumitomo Pharma America, Inc., priority 2022, published 2026)

Tests used:
[1] = Rat learned helplessness model (active avoidance); conditions: helpless rats; for escape failures (Mean ± SEM) / inter-trial interval (ITI) crossings (Mean ± SEM): 32 mg/kg, po bid
Description: In this model, rats are first exposed to inescapable foot shock to induce a helpless state which is then expressed by a subsequent failure to learn to avoid escapable foot shocks (active avoidance).
Helplessness was induced on Day 1 in 5 of the groups by exposing animals to inescapable foot shocks delivered through an electrified stainless steel grid floor every 15 seconds for 1 h. […] Treatment continued on days 2-5 with all subjects receiving test agent or vehicle twice daily (AM and PM). Active avoidance was tested 60 min after the morning dose on Days 3, 4 and 5. All rats were tested in a 2-compartment active avoidance chamber where delivery of foot shock was signaled by a light cue. The test session began with 5 min of free exploration after which 30 stimulus-shock trials were delivered during a 15 min period. Each trial lasted 30 seconds with an initial 24 second rest period, followed by a 6 second light cue presentation with foot shock delivered during the last 3 seconds. […] Failure to avoid full delivery of the foot shock (i.e., failing to cross during 3 second shock presentation) was considered an escape failure. Crossings to the opposite compartment of the shuttle box during the 24 second rest period were recorded as inter-trial interval (ITI) crossings. Escape failures and ITI crossings were analyzed by two way repeated measures ANOVA with treatment as a main factor and test session (i.e., day) as the repeated measure.

[2] = literature (Ardalan 2017; Cryan 2005; Koike 2014); acute treatment; cited from earlier work
[3] = Rat forced swim test, second study (one administration 24 h prior to testing); conditions: 10 mg/kg, ip, positive control, of 60 observations in 5 min, p < 0.05 vs vehicle (footnote a)
Description: In both procedures, rats were pre-exposed to a 15 min swim session (day 0) prior to the 5 min FST session which was conducted 24 h later (day 1).
In the second study, adult, male Sprague-Dawley rats (190-234 g, n=10 per group) were dosed on only one occasion immediately after the pre-swim i.e., 24 h prior to testing. […] Behavior was quantified during the 5 min test session using a time sampling technique where the actual behavior observed, i.e., immobility, climbing or swimming, was recorded every 5 seconds for a total of 60 observations. Results were analyzed by one way ANOVA followed by Dunnett's post hoc comparisons.

| SMILES | escape failures, significance ([1]; 32 mg/kg po bid) | escape failures (Mean ± SEM) ([1]; Day 3) | inter-trial interval (ITI) crossings (Mean ± SEM) ([1]; Day 3) | inter-trial interval (ITI) crossings (Mean ± SEM) ([1]; Day 4) | escape failures (Mean ± SEM) ([1]; Day 4, p < 0.05 vs helpless/vehicle (footnote a)) | inter-trial interval (ITI) crossings (Mean ± SEM) ([1]; Day 5) | escape failures (Mean ± SEM) ([1]; Day 5, p < 0.05 vs helpless/vehicle (footnote a)) | antidepressant-like effects in this dosing protocol (rat FST, dosed 24 h prior to testing) [2] | Immobility frequency (Mean ± SEM) [3] |
| --- | --- | --- | --- | --- | --- | --- | --- | --- | --- |
| CN(C)CCCN1c2ccccc2CCc2ccccc21 [Imipramine] | significant reduction in escape failures | 3 ± 1 | 17 ± 2 | 12 ± 2 | 3 ± 2^a | 15 ± 2 | 2 ± 1^a |  |  |
| CNC1(c2ccccc2Cl)CCCCC1=O (stereo not drawn) [Ketamine] |  |  |  |  |  |  |  | antidepressant-like effects | 22.9 ± 3.5^a |
